According to article PMC6858350, “A common mechanism allows selective targeting of GluN2B subunit-containing N-methyl-D-aspartate receptors” (Communications Biology, 2019):
Like-named read-outs stand apart in the source and are kept apart here.

Experiments:
[1] = molecular target: GluN1-1a/GluN2B NMDAR (wildtype) (Rattus norvegicus, UniProt P35439+Q00960); type: cell-based; settings: for p (slope of the dose-response curve) / A2 ± SE (maximum inhibition from dose-response curve): −70 mV; for A2 ± SE (maximum inhibition from dose-response curve): flexible A2; for inhibition at 10 µM: read-out: ion current inhibition % ± SEM, GluN2B
[2] = tested on: more than 100 relevant receptors, transporters and enzymes including adrenergic (α1), dopaminergic (D1, D2), opioid (κ, μ, δ) and serotonergic receptors …; design: method as in earlier work; settings: concentration of 1 - 3 µM; ref 2 (Tewes et al., Bioorg. Med. Chem. 2010); cited from earlier work
[3] = molecular target: T1, GluN1-1a Y109S/GluN2B WT (Rattus norvegicus, UniProt P35439+Q00960, Y109S); settings: for p (slope) / A2 ± SE: GluN1-1a Y109S; for A2 ± SE: flexible A2
[4] = molecular target: T2, GluN1-1a F113S/GluN2B WT (Rattus norvegicus, UniProt P35439+Q00960, F113S); settings: for p (slope) / A2 ± SE: GluN1-1a F113S; for A2 ± SE: flexible A2
[5] = molecular target: T3, GluN1-1a S132A/GluN2B WT (Rattus norvegicus, UniProt P35439+Q00960, S132A); settings: for p (slope) / A2 ± SE: GluN1-1a S132A; for A2 ± SE: flexible A2
[6] = molecular target: T4, GluN1-1a L135N/GluN2B WT (Rattus norvegicus, UniProt P35439+Q00960, L135N); settings: for p (slope) / A2 ± SE: GluN1-1a L135N; for A2 ± SE: flexible A2
T4 sequence (Q00960 27-1482, other chains not shown): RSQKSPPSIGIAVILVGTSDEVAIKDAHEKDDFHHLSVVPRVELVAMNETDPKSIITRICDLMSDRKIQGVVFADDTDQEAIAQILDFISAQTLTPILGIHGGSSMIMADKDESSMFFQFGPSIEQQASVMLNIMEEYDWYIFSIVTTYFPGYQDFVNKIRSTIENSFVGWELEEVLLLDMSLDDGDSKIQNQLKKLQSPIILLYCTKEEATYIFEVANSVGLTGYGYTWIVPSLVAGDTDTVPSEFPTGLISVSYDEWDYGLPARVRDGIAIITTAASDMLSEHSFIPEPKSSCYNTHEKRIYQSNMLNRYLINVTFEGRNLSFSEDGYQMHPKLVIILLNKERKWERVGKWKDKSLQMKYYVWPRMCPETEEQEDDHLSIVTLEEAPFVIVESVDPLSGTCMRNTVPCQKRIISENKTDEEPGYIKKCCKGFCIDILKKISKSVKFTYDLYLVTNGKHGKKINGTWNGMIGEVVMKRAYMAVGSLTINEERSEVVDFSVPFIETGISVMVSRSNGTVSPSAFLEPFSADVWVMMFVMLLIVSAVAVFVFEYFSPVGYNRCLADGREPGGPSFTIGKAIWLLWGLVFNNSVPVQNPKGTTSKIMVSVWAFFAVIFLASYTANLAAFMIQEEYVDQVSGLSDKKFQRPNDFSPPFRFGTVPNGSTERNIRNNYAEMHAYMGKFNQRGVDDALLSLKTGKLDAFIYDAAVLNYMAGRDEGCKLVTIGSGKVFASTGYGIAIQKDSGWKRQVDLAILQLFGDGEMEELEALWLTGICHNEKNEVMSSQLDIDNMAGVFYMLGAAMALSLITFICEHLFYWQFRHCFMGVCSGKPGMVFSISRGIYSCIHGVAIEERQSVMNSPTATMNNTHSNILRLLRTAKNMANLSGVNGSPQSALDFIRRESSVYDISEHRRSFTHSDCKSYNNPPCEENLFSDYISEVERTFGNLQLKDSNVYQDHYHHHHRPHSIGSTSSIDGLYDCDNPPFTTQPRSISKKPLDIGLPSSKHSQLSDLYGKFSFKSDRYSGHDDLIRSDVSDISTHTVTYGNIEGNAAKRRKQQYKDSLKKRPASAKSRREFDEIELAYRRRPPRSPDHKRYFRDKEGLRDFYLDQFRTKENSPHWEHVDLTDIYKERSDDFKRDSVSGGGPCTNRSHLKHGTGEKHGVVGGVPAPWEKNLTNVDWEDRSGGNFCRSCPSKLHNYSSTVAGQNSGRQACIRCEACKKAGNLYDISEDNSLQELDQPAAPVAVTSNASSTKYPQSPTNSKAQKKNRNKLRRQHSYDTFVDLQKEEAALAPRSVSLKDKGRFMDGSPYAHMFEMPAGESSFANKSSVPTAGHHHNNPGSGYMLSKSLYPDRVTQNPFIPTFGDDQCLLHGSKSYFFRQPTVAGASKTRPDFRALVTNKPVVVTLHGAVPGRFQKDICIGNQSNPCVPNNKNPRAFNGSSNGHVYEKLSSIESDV

[7] = molecular target: T5, GluN1-1a WT/GluN2B Q110A (Rattus norvegicus, UniProt P35439+Q00960, Q110A); settings: for p (slope) / A2 ± SE: GluN2B Q110A; for A2 ± SE: flexible A2
[8] = molecular target: T6, GluN1-1a WT/GluN2B I111A (Rattus norvegicus, UniProt P35439+Q00960, I111A); settings: for p (slope) / A2 ± SE: GluN2B I111A; for A2 ± SE: flexible A2
T6 sequence (Q00960 27-1482 I111A, other chains not shown): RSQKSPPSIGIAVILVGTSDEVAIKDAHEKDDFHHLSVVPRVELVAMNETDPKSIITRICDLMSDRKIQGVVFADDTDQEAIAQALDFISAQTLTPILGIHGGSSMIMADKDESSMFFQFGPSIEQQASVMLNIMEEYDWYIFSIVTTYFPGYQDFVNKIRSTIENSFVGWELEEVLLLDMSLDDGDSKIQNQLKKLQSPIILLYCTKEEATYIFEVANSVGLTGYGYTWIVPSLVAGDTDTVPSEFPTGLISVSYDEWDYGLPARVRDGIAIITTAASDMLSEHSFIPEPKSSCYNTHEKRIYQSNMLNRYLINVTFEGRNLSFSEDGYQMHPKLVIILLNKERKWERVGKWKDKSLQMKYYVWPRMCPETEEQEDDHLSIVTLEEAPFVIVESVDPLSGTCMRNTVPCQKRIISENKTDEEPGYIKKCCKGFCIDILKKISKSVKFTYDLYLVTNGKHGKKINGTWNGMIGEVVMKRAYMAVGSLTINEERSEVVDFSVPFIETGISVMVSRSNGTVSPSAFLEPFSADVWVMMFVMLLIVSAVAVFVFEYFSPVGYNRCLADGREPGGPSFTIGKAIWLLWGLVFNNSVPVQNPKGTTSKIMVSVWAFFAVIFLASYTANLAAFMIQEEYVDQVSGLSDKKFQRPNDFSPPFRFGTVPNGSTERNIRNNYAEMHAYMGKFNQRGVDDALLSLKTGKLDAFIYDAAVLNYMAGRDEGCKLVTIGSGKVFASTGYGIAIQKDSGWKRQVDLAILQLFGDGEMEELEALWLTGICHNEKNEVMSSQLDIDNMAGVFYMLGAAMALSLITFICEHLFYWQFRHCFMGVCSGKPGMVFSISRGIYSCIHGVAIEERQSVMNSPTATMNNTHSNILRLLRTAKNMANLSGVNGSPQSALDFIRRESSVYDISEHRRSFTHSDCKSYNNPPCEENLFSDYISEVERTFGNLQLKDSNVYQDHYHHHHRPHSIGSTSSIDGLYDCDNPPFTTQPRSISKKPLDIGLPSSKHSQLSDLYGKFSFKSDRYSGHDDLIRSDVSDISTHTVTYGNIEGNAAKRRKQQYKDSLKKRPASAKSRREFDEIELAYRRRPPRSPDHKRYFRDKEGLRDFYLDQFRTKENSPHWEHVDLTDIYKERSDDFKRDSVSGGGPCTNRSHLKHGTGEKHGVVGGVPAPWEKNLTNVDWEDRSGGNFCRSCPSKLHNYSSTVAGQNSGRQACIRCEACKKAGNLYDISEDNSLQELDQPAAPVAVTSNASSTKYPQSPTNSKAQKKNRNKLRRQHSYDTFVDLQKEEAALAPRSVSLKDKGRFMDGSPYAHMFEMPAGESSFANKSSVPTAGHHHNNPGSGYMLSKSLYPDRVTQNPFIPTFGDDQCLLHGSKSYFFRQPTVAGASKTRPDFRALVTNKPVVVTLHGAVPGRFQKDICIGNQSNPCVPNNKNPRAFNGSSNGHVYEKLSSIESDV

[9] = molecular target: T7, GluN1-1a WT/GluN2B F114A (Rattus norvegicus, UniProt P35439+Q00960, F114A); settings: for p (slope) / A2, fixed-to-wildtype (*): GluN2B F114A; for A2, fixed-to-wildtype (*): maximum inhibition fixed to wildtype value
T7 sequence (Q00960 27-1482 F114A, other chains not shown): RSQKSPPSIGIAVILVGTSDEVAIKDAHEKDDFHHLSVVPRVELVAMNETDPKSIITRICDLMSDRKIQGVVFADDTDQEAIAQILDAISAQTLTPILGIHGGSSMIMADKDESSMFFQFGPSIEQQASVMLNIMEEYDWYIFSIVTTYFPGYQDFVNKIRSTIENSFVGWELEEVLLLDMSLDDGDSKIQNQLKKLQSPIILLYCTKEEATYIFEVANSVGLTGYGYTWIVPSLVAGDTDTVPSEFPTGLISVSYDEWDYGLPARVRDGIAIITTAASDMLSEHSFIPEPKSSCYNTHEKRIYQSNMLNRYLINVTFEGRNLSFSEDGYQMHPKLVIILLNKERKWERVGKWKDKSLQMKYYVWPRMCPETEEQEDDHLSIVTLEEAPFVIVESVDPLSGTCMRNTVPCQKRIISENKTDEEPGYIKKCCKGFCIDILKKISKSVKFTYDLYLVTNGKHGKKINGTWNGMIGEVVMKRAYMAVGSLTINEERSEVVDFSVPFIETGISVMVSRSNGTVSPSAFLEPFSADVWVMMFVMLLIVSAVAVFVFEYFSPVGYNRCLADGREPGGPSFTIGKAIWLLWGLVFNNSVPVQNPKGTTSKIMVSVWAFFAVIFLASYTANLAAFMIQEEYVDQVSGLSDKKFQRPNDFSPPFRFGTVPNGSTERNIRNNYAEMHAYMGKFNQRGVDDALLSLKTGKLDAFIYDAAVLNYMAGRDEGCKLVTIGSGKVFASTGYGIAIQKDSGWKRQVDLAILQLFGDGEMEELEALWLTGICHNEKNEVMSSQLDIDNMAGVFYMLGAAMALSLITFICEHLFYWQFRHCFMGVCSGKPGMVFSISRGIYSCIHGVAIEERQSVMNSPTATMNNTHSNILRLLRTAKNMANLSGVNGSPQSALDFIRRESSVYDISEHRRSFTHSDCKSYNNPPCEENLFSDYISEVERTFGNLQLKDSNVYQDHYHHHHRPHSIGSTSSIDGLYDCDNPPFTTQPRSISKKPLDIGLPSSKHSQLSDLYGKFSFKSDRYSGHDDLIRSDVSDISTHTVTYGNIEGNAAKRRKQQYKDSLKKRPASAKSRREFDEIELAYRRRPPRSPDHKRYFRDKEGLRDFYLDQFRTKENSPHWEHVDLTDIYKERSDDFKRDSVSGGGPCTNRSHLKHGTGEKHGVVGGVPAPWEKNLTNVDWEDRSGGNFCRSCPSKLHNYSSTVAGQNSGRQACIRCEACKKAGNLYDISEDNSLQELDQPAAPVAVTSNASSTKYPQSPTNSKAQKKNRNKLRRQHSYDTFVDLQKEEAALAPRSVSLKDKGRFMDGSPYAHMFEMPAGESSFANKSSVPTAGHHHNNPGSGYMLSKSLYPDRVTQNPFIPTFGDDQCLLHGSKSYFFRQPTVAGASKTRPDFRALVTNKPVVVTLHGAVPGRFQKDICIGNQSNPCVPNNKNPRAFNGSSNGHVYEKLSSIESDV

[10] = molecular target: T8, GluN1-1a WT/GluN2B F176A (Rattus norvegicus, UniProt P35439+Q00960, F176A); settings: for p (slope) / A2, fixed-to-wildtype (*): GluN2B F176A; for A2, fixed-to-wildtype (*): maximum inhibition fixed to wildtype value
[11] = molecular target: T9, GluN1-1a WT/GluN2B F176Y (Rattus norvegicus, UniProt P35439+Q00960, F176Y); settings: for p (slope) / A2, fixed-to-wildtype (*): GluN2B F176Y; for A2, fixed-to-wildtype (*): maximum inhibition fixed to wildtype value
[12] = molecular target: T10, GluN1-1a WT/GluN2B E236A (Rattus norvegicus, UniProt P35439+Q00960, E236A); settings: for p (slope) / A2 ± SE: GluN2B E236A; for A2 ± SE: flexible A2
[13] = molecular target: T11, GluN1-1a/GluN2C NMDAR (Rattus norvegicus, UniProt P35439+Q00961); settings: from inhibition at 10 µM (GluN2C, GluN2D) versus IC50 at GluN2B
[14] = molecular target: T1, GluN1-1a Y109S/GluN2B WT; assay: cell-based
[15] = molecular target: T2, GluN1-1a F113S/GluN2B WT; assay: cell-based
[16] = molecular target: T3, GluN1-1a S132A/GluN2B WT; assay: cell-based
[17] = molecular target: T4, GluN1-1a L135N/GluN2B WT; assay: cell-based
[18] = molecular target: T5, GluN1-1a WT/GluN2B Q110A; assay: cell-based
[19] = molecular target: T6, GluN1-1a WT/GluN2B I111A; assay: cell-based
[20] = molecular target: T7, GluN1-1a WT/GluN2B F114A; assay: cell-based
[21] = molecular target: T8, GluN1-1a WT/GluN2B F176A; assay: cell-based
[22] = molecular target: T9, GluN1-1a WT/GluN2B F176Y; assay: cell-based
[23] = molecular target: T10, GluN1-1a WT/GluN2B E236A; assay: cell-based
[24] = molecular target: GluN1-1a/GluN2A NMDAR (Rattus norvegicus, UniProt P35439+Q00959); assay: cell-based; settings: read-out: ion current inhibition % ± SEM, GluN2A
[25] = molecular target: T11, GluN1-1a/GluN2C NMDAR; assay: cell-based; settings: read-out: ion current inhibition % ± SEM, GluN2C
[26] = molecular target: GluN1-1a/GluN2D NMDAR (Rattus norvegicus, UniProt P35439+Q62645); assay: cell-based; settings: read-out: ion current inhibition % ± SEM, GluN2D
[27] = molecular target: T12, GluN1-1a/GluN2B (ifenprodil binding site) (Homo sapiens, UniProt Q05586+Q13224); settings: displacement of [3H]ifenprodil; Ki values previously published; read-out: Ki + SEM; cited from earlier work
T12 construct: expressed in transfected cells; host or cells: mouse L(tk) cells, dexamethasone-inducible expression; membrane fraction

[28] = TEVC, holding potential −70 mV, 10 µM glycine and 10 µM (S)-glutamate, wildtype, read-out: IC50 ± SE

SMILES: Oc1ccc2c(c1)CCN(CCCCc1ccccc1)CC2O (racemic) [compound rac-1]
- IC50 [1, 28]: 94 ± 8 nM
- p (slope of the dose-response curve) ([1]; TEVC, wildtype): 1.25
- A2 ± SE (maximum inhibition from dose-response curve) ([1]; TEVC, wildtype): 93 ± 2%
- competition with the employed radioligands [2]: did not compete

SMILES: C[C@@H]1[C@H](O)c2ccc(O)cc2CCN1CCCCc1ccccc1 [compound 2]
- IC50 [1]: 91 ± 7 nM
- p (slope of the dose-response curve) ([1]; TEVC, wildtype): 1.08
- A2 ± SE (maximum inhibition from dose-response curve) ([1]; TEVC, wildtype): 97 ± 2%
- inhibition at 10 µM [1]: 95 ± 1%
- p (slope) [3]: 0.86
- A2 ± SE [3]: 96 ± 2%
- IC50 shift factor ([3]; mutant IC50 / wildtype IC50, GluN1-1a Y109S): 1.5
- p (slope) [4]: 0.57
- A2 ± SE [4]: 100 ± 3%
- IC50 shift factor ([4]; mutant IC50 / wildtype IC50, GluN1-1a F113S): 0.8
- p (slope) [5]: 0.78
- A2 ± SE [5]: 100 ± 3%
- IC50 shift factor ([5]; mutant IC50 / wildtype IC50, GluN1-1a S132A): 4.3
- p (slope) [6]: 0.72
- A2 ± SE [6]: 100 ± 5%
- IC50 shift factor ([6]; mutant IC50 / wildtype IC50, GluN1-1a L135N): 9.2
- p (slope) [7]: 1.79
- A2 ± SE [7]: 95 ± 1%
- IC50 shift factor ([7]; mutant IC50 / wildtype IC50, GluN2B Q110A): 1.4
- p (slope) [8]: 0.86
- A2 ± SE [8]: 96 ± 4%
- IC50 shift factor ([8]; mutant IC50 / wildtype IC50, GluN2B I111A): 4.2
- p (slope) [9]: 1.03
- A2, fixed-to-wildtype (*) [9]: 97%
- IC50 shift factor ([9]; mutant IC50 / wildtype IC50, GluN2B F114A): 7.3
- p (slope) [10]: 0.94
- A2, fixed-to-wildtype (*) [10]: 97%
- IC50 shift factor ([10]; mutant IC50 / wildtype IC50, GluN2B F176A): 19.9
- p (slope) [11]: 1.00
- A2, fixed-to-wildtype (*) [11]: 97%
- IC50 shift factor ([11]; mutant IC50 / wildtype IC50, GluN2B F176Y): 0.9
- p (slope) [12]: 1.09
- A2 ± SE [12]: 95 ± 3%
- IC50 shift factor ([12]; mutant IC50 / wildtype IC50, GluN2B E236A): 1.2
- lower activity at GluN2C and GluN2D than at GluN2B subunit-containing NMDARs [13]: at least 100 fold
- IC50 [14]: 140 ± 19 nM
- IC50 [15]: 76 ± 17 nM
- IC50 [16]: 387 ± 57 nM
- IC50 [17]: 835 ± 184 nM
- IC50 [18]: 130 ± 6 nM
- IC50 [19]: 380 ± 82 nM
- IC50 [20]: 667 ± 90 nM
- IC50 [21]: 1810 ± 127 nM
- IC50 [22]: 84 ± 9 nM
- IC50 [23]: 108 ± 16 nM
- inhibition at 10 µM [24]: 15 ± 5%
- inhibition at 10 µM [25]: 56 ± 2%
- inhibition at 10 µM [26]: 55 ± 2%

SMILES: Oc1ccc2c(c1)CCN(CCCCc1ccccc1)C[C@H]2O [compound (S)-1]
- IC50 [1, 28]: 206 ± 23 nM
- p (slope of the dose-response curve) ([1]; TEVC, wildtype): 0.98
- A2 ± SE (maximum inhibition from dose-response curve) ([1]; TEVC, wildtype): 95 ± 2%
- inhibition at 10 µM [1]: 93 ± 1%
- p (slope) [3]: 0.85
- A2 ± SE [3]: 79 ± 4%
- p (slope) [4]: 0.87
- A2 ± SE [4]: 89 ± 4%
- p (slope) [5]: 1.16
- A2 ± SE [5]: 89 ± 1%
- p (slope) [6]: 0.98
- A2 ± SE [6]: 68 ± 7%
- p (slope) [7]: 1.27
- A2 ± SE [7]: 94 ± 2%
- p (slope) [8]: 0.89
- A2 ± SE [8]: 73 ± 6%
- p (slope) [9]: 1.26
- A2, fixed-to-wildtype (*) [9]: 95%
- Ki [27]: 740 ± 61 nM
- p (slope) [10]: 1.00
- A2, fixed-to-wildtype (*) [10]: 95%
- p (slope) [11]: 0.82
- A2, fixed-to-wildtype (*) [11]: 95%
- p (slope) [12]: 0.99
- A2 ± SE [12]: 96 ± 8%
- IC50 [14]: 764 ± 189 nM
- IC50 [15]: 756 ± 137 nM
- IC50 [16]: 691 ± 44 nM
- IC50 [17]: 3660 ± 1180 nM
- IC50 [18]: 243 ± 34 nM
- IC50 [19]: 1560 ± 504 nM
- IC50 [20]: 38900 ± 5280 nM
- IC50 [21]: 15500 ± 1790 nM
- IC50 [22]: 261 ± 25 nM
- inhibition at 10 µM [24]: 6 ± 2%
- inhibition at 10 µM [25]: 19 ± 2%
- inhibition at 10 µM [26]: 21 ± 3%
